Source: ChEMBL document CHEMBL1157938, “Cytotoxicity and inhibition of DNA topoisomerase I of polyhydroxylated triterpenoids and triterpenoid glycosides” (Bioorg Med Chem Lett, 2010)
Calls of active or inactive are those of the source. The rule behind the calls is not given here.

Columns and labels:
[1] = target: T1, DNA topoisomerase 1 (Homo sapiens, UniProt P11387); assay: Inhibition of human DNA topoisomerase 1-mediated relaxation of supercoiled DNA by gel electrophoresis
T1 sequence (P11387 whole entry): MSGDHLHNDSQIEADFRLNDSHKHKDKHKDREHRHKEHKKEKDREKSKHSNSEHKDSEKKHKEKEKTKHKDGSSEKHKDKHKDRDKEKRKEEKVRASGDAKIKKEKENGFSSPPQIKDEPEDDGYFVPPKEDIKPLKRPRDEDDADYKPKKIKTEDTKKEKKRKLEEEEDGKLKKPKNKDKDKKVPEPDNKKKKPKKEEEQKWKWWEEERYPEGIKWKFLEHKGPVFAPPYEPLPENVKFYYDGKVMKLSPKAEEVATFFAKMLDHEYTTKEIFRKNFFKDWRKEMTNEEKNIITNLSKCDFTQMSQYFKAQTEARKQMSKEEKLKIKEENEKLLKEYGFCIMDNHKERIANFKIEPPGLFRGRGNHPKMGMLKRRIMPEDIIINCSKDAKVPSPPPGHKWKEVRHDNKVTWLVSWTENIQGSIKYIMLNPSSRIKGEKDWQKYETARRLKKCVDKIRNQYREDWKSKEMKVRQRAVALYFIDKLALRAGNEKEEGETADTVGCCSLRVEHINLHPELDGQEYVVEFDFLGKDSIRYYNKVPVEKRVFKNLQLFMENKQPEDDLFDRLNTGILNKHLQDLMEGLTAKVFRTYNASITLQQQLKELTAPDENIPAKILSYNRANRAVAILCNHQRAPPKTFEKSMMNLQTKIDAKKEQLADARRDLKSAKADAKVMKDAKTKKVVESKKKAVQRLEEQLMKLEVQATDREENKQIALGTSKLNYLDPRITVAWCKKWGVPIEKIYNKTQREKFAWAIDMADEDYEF

[2] = target: DNA topoisomerase 2-alpha (Homo sapiens, UniProt P11388); assay: Inhibition of human DNA topoisomerase 2-mediated relaxation of supercoiled DNA by gel electrophoresis
[3] = test system: A549; assay: Cytotoxicity against human A549 cells after 48 hrs by WST8 assay; assay type: functional; details: A549, 48 h
[4] = test system: PC-3; assay: Cytotoxicity against human PC3 cells after 48 hrs by WST8 assay; assay type: functional; details: PC-3, 48 h
[5] = test system: HL-60; assay: Cytotoxicity against human HL60 cells after 48 hrs by WST8 assay; assay type: functional; details: HL-60, 48 h
[6] = test system: PANC-1; assay: Cytotoxicity against human PANC1 cells after 48 hrs by WST8 assay; assay type: functional; details: PANC-1, 48 h
[7] = Cytotoxicity against human MRC5 cells after 48 hrs by WST8 assay; assay type: cell-based
[8] = test system: HL-60; assay: Cytotoxicity against human HL60 cells at 25 uM after 48 hrs by WST8 assay; assay type: functional, cell-based
[9] = test system: A549; assay: Cytotoxicity against human A549 cells at 25 uM after 48 hrs by WST8 assay; assay type: functional, cell-based
[10] = test system: PC-3; assay: Cytotoxicity against human PC3 cells at 25 uM after 48 hrs by WST8 assay; assay type: functional, cell-based
[11] = test system: PANC-1; assay: Cytotoxicity against human PANC1 cells at 25 uM after 48 hrs by WST8 assay; assay type: functional, cell-based
[12] = test system: MRC5; assay: Cytotoxicity against human MRC5 cells at 25 uM after 48 hrs by WST8 assay; assay type: cell-based; details: mrc5, 48 h

Chain of DNA topoisomerase 2-alpha (P11388 whole entry): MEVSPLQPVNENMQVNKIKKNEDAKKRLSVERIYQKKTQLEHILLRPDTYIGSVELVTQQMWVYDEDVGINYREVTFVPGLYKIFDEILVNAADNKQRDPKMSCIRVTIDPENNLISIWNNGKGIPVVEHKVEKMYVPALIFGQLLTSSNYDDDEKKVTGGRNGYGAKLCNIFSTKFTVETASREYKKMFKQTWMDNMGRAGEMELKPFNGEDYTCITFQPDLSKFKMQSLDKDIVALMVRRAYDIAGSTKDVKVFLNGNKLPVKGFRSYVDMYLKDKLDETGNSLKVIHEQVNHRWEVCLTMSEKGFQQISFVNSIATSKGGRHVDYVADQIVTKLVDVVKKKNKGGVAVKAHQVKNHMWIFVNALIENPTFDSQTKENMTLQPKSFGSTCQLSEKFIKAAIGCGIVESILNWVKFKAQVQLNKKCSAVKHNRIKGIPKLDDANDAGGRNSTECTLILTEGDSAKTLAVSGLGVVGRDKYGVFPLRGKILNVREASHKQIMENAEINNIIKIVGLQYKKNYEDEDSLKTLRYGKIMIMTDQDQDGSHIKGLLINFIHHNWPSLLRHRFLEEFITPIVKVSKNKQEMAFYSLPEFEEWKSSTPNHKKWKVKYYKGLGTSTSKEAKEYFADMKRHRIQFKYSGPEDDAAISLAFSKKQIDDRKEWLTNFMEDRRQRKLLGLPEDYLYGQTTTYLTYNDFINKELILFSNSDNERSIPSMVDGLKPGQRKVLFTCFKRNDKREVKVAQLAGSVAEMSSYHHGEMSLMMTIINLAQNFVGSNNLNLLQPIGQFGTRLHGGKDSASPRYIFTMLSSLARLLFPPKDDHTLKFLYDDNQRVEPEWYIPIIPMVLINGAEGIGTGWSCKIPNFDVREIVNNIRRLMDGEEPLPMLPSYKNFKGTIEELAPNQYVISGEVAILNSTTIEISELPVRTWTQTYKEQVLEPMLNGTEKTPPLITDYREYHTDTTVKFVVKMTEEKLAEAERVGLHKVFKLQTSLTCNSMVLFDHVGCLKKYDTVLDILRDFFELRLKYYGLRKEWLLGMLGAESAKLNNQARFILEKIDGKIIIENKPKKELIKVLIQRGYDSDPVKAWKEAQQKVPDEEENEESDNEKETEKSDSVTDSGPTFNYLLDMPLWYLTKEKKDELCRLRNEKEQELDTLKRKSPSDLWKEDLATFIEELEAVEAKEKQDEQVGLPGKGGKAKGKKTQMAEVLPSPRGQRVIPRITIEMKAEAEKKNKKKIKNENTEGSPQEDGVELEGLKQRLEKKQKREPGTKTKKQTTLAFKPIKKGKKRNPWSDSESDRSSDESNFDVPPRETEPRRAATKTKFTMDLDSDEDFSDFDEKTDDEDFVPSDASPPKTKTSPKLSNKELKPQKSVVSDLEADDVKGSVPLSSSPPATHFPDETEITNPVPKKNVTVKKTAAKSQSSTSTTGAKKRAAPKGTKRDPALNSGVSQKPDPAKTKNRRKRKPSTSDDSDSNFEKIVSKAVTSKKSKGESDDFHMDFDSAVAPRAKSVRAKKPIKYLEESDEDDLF

IC50 [1] [µM] | IC50 [2] [µM] | SMILES | GI50 [3] [µM] | GI50 [4] [µM] | GI50 [5] [µM] | GI50 [6] [µM] | GI50 at 48 h [7] [µM] | growth inhibition (GI) [8] | growth inhibition (GI) [9] | growth inhibition (GI) [10] | growth inhibition (GI) [11] | growth inhibition (GI) [12]
> 250 | > 250 | C/C=C(/C)C(=O)O[C@H]1[C@H](OC(=O)/C(C)=C\C)[C@]2(CO)[C@H](O)C[C@]3(C)C(=CC[C@@H]4[C@@]5(C)CC[C@H](O)[C@](C)(CO)[C@@H]5CC[C@]43C)[C@@H]2CC1(C)C | 1.94 | 2.39 | 2.72 | 4.63 | 1.65 | – | – | – | – | –
> 250 | > 250 | C/C=C(/C)C(=O)O[C@H]1[C@H](OC(=O)C(C)CC)[C@]2(CO)[C@H](O)[C@H](O)[C@]3(C)C(=CC[C@@H]4[C@@]5(C)CC[C@H](O)C(C)(C)[C@@H]5CC[C@]43C)[C@@H]2CC1(C)C (some centres undefined) | 5.37 | 12.5 | 4.21 | 12.8 | 6.53 | – | – | – | – | –
> 250 | > 250 | C/C=C(/C)C(=O)O[C@H]1[C@H](OC(=O)C(C)CC)[C@]2(CO)[C@H](O)C[C@]3(C)C(=CC[C@@H]4[C@@]5(C)CC[C@H](O)C(C)(C)[C@@H]5CC[C@]43C)[C@@H]2CC1(C)C (some centres undefined) | 1.7 | 4.11 | 4.6 | 9.6 | 3.67 | – | – | – | – | –
> 250 | > 250 | C/C=C(/C)C(=O)O[C@H]1[C@H](OC(=O)C(C)C)[C@]2(CO)[C@H](O)C[C@]3(C)C(=CC[C@@H]4[C@@]5(C)CC[C@H](O)[C@](C)(CO)[C@@H]5CC[C@]43C)[C@@H]2CC1(C)C | 3.81 | 2.34 | 2.53 | 8 | 2.71 | – | – | – | – | –
> 250 | > 250 | C/C=C(/C)C(=O)O[C@H]1[C@H](O)[C@]2(CO)[C@H](O)C[C@]3(C)C(=CC[C@@H]4[C@@]5(C)CC[C@H](O)[C@](C)(CO)[C@@H]5CC[C@]43C)[C@@H]2CC1(C)C | 2.45 | 2.23 | – | 11.9 | 18.1 | inactive | – | – | – | –
> 250 | > 250 | C[C@H]1[C@H](C)CC[C@]2(C)CC[C@]3(C)C(=CC[C@@H]4[C@@]5(C)CC[C@H](O)C(C)(C)[C@@H]5CC[C@]43C)[C@H]12 | 10.5 | 7.66 | – | 12.8 | – | inactive | – | – | – | –
> 250 | > 250 | C/C=C(\C)C(=O)O[C@H]1[C@H](OC(C)=O)[C@]2(CO)[C@H](O)C[C@]3(C)C(=CC[C@@H]4[C@@]5(C)CC[C@H](O[C@@H]6O[C@H](C(=O)O)[C@@H](O)[C@H](O[C@@H]7O[C@@H](CO)[C@H](O)[C@H]7O)[C@H]6O[C@@H]6O[C@H](CO)[C@H](O)[C@H](O)[C@H]6O)C(C)(C)[C@@H]5CC[C@]43C)[C@@H]2CC1(C)C [AESCULIOSIDE IIJ] | 21.8 | 13.8 | – | 21.9 | 17.3 | inactive | – | – | – | –
> 250 | > 250 | C/C=C(/C)C(=O)O[C@H]1[C@H](OC(C)=O)[C@]2(CO)[C@H](O)[C@H](O)[C@]3(C)C(=CC[C@@H]4[C@@]5(C)CC[C@H](O[C@@H]6O[C@H](C(=O)O)[C@@H](O)[C@H](O[C@@H]7OC[C@@H](O)[C@H](O)[C@H]7O)[C@H]6O[C@@H]6O[C@H](CO)[C@@H](O)[C@H](O)[C@H]6O)C(C)(C)[C@@H]5CC[C@]43C)[C@@H]2CC1(C)C [ERYNGIIOSIDE J] | 4.3 | 5.08 | 7.36 | 11.5 | 5.61 | – | – | – | – | –
> 250 | > 250 | C/C=C(/C)C(=O)O[C@H]1[C@H](OC(C)=O)[C@]2(CO)[C@H](O)C[C@]3(C)C(=CC[C@@H]4[C@@]5(C)CC[C@H](O[C@@H]6O[C@H](C(=O)O)[C@@H](O)[C@H](O[C@@H]7OC[C@H](O)[C@H](O)[C@H]7O)[C@H]6O[C@@H]6O[C@H](CO)[C@@H](O)[C@H](O)[C@H]6O)C(C)(C)[C@@H]5CC[C@]43C)[C@@H]2CC1(C)C [ERYNGIIOSIDE L] | 8.35 | 11.3 | 8.41 | 13 | 8.71 | – | – | – | – | –
> 250 | > 250 | C/C=C(/C)C(=O)O[C@H]1[C@H](O)C(C)(C)C[C@H]2C3=CC[C@@H]4[C@@]5(C)CC[C@H](O[C@@H]6O[C@H](C(=O)O)[C@@H](O)[C@H](O[C@@H]7OC[C@@H](O)[C@H](O)[C@H]7O)[C@H]6O[C@@H]6O[C@H](CO)[C@@H](O)[C@H](O)[C@H]6O)C(C)(C)[C@@H]5CC[C@@]4(C)[C@]3(C)[C@@H](O)[C@@H](O)[C@]21CO [ERYNGIOSIDE E] | – | – | – | – | – | inactive | inactive | inactive | inactive | Not Active
> 250 | > 250 | C/C=C(/C)C(=O)O[C@H]1[C@H](O)C(C)(C)C[C@H]2C3=CC[C@@H]4[C@@]5(C)CC[C@H](O[C@@H]6O[C@H](C(=O)O)[C@@H](O)[C@H](O[C@@H]7OC[C@@H](O)[C@H](O)[C@H]7O)[C@H]6O[C@@H]6O[C@H](CO)[C@@H](O)[C@H](O)[C@H]6O)C(C)(C)[C@@H]5CC[C@@]4(C)[C@]3(C)C[C@@H](O)[C@]21CO [ERYNGIOSIDE F] | – | – | – | – | – | inactive | inactive | inactive | inactive | Not Active
> 250 | > 250 | C/C=C(/CC)C(=O)O[C@H]1[C@H](OC(C)=O)[C@]2(CO)[C@H](O)[C@H](O)[C@]3(C)C(=CC[C@@H]4[C@@]5(C)CC[C@H](O[C@@H]6O[C@H](C(=O)O)[C@@H](O)[C@H](O[C@@H]7OC[C@H](O)[C@H](O)[C@H]7O)[C@H]6O[C@@H]6O[C@H](CO)[C@@H](O)[C@H](O)[C@H]6O)C(C)(C)[C@@H]5CC[C@]43C)[C@@H]2CC1(C)C [SANICULASAPONIN III] | 4.73 | 8.51 | 7.11 | 16 | 3.54 | – | – | – | – | –

SMILES | IC50 [1] [µM] | IC50 [2] [µM] | GI50 [3] [µM] | GI50 [4] [µM] | GI50 [5] [µM] | GI50 [6] [µM] | GI50 at 48 h [7] [µM] | growth inhibition (GI) [8] | growth inhibition (GI) [9] | growth inhibition (GI) [10] | growth inhibition (GI) [11] | growth inhibition (GI) [12]
C/C=C(\C)C(=O)O[C@H]1[C@H](OC(C)=O)[C@]2(CO)[C@H](O)[C@H](O)[C@]3(C)C(=CC[C@@H]4[C@@]5(C)CC[C@H](O[C@@H]6O[C@H](C(=O)O)[C@@H](O)[C@H](O[C@@H]7O[C@@H](CO)[C@H](O)[C@H]7O)[C@H]6O[C@@H]6O[C@H](CO)[C@H](O)[C@H](O)[C@H]6O)C(C)(C)[C@@H]5CC[C@]43C)[C@@H]2CC1(C)C [AESCULIOSIDE IIF] | > 250 | > 250 | – | – | – | – | – | inactive | inactive | inactive | inactive | Not Active
C/C=C(/C)C(=O)O[C@H]1[C@H](OC(C)=O)[C@]2(CO)[C@H](O)[C@H](O)[C@]3(C)C(=CC[C@@H]4[C@@]5(C)CC[C@H](O[C@@H]6O[C@H](C(=O)O)[C@@H](O)[C@H](O[C@@H]7O[C@@H](CO)[C@H](O)[C@H]7O)[C@H]6O[C@@H]6O[C@H](CO)[C@H](O)[C@H](O)[C@H]6O)C(C)(C)[C@@H]5CC[C@]43C)[C@@H]2CC1(C)C [AESCULIOSIDE IIG] | > 250 | > 250 | – | – | – | – | – | inactive | inactive | inactive | inactive | Not Active
C/C=C(/C)C(=O)O[C@H]1[C@H](OC(C)=O)[C@]2(CO)[C@H](O)C[C@]3(C)C(=CC[C@@H]4[C@@]5(C)CC[C@H](O[C@@H]6O[C@H](C(=O)O)[C@@H](O)[C@H](O[C@@H]7O[C@@H](CO)[C@H](O)[C@H]7O)[C@H]6O[C@@H]6O[C@H](CO)[C@@H](O)[C@H](O)[C@H]6O)[C@](C)(CO)[C@@H]5CC[C@]43C)[C@@H]2CC1(C)C [AESCULIOSIDE III] | > 250 | > 250 | 20.1 | 9.54 | 8.37 | 14.8 | 12.8 | – | – | – | – | –
